Measurements published in patent US10450297B2, “Sulfonyl amide derivatives for the treatment of abnormal cell growth” (Pfizer, Inc., priority 2007, dated 2019).

Target: FAK kinase (catalytic construct FAK(410-689)) (Homo sapiens (Human), UniProt Q05397)
Experiment: FAKcd kinase ELISA (inhibition of poly-glu-tyr phosphorylation by FAK(410-689))
Assay type: biochemical
Conditions: 50 μM final ATP

Chain of FAK kinase (catalytic construct FAK(410-689)) (Q05397 410-689): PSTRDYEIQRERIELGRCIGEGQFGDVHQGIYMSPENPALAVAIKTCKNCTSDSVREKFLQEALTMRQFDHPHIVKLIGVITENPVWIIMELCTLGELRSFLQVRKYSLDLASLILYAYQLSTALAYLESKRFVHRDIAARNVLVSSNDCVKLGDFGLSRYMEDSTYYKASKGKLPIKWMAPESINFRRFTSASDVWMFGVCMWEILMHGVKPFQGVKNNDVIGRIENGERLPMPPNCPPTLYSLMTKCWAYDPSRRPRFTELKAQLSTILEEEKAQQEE

SMILES	IC50 [nM]
C[C@H](N)c1ccc(Nc2ncc(C(F)(F)F)c(NCc3cccc(N(C)S(C)(=O)=O)c3)n2)cc1 [Compound 365, N-[3-({[2-({4-[(1S)-1-aminoethyl]phenyl}amino)-5-(trifluoromethyl)pyrimidin-4-yl]amino}methyl)phenyl]-N-methylmethanesulfonamide]	0.976
CC(=O)Nc1cccc(Nc2ncc(C(F)(F)F)c(NCc3cccnc3N(C)S(C)(=O)=O)n2)c1 [Compound 366, N-[3-({4-[({2-[methyl(methylsulfonyl)amino]pyridin-3-yl}methyl)amino]-5-(trifluoromethyl)pyrimidin-2-yl}amino)phenyl]acetamide]	< 0.595
CN1CCN(c2cccc(Nc3ncc(C(F)(F)F)c(NCc4cccnc4N(C)S(C)(=O)=O)n3)c2)C1=O [Compound 367, N-methyl-N-[3-({[2-{[3-(3-methyl-2-oxoimidazolidin-1-yl)phenyl]amino}-5-(trifluoromethyl)pyrimidin-4-yl]amino}methyl)pyridin-2-yl]methanesulfonamide]	1.64
CNC(=O)c1ccc(Nc2ncc(C(F)(F)F)c(NCc3nccnc3N(C)S(C)(=O)=O)n2)c(F)c1 [Compound 368, 3-fluoro-N-methyl-4-({4-[({3-[methyl(methylsulfonyl)amino]pyrazin-2-yl}methyl)amino]-5-(trifluoromethyl)pyrimidin-2-yl}amino)benzamide]	< 0.595
CNC(=O)c1ccc(Nc2ncc(C(F)(F)F)c(NCc3nccnc3N(C)S(C)(=O)=O)n2)c(F)c1 [Compound 369, 3-fluoro-N-methyl-4-({4-[({3-[methyl(methylsulfonyl)amino]pyrazin-2-yl}methyl)amino]-5-(trifluoromethyl)pyrimidin-2-yl}amino)benzamide]	1.49
CNC(=O)c1ccc(Nc2ncc(C(F)(F)F)c(NCc3nccnc3N(C)S(C)(=O)=O)n2)cc1F [Compound 370, 2-fluoro-N-methyl-4-({4-(({3-[methyl(methylsulfonyl)amino]pyrazin-2-yl}methyl)amino]-5-(trifluoromethyl)pyrimidin-2-yl}amino)benzamide]	0.6
CCC(=O)Nc1cccc(Nc2ncc(C(F)(F)F)c(NCc3cccnc3N(C)S(C)(=O)=O)n2)c1 [Compound 371, N-(3-({4-[({2-[methyl(methylsulfonyl)amino]pyridin-3-yl}methyl)amino]-5-(trifluoromethyl)pyrimidin-2-yl}amino)phenyl]propanamide]	1.94
CN(c1ncccc1CNc1nc(Nc2ccc(C(N)=O)nc2)ncc1C(F)(F)F)S(C)(=O)=O [Compound 372, 5-({4-[({2-[methyl(methylsulfonyl)amino]pyridin-3-yl}methyl)amino]-5-(trifluoromethyl)pyrimidin-2-yl}amino)pyridine-2-carboxamide]	4
CN(c1nccnc1CNc1nc(Nc2cc(C(N)=O)ccc2F)ncc1C(F)(F)F)S(C)(=O)=O [Compound 373, 4-fluoro-3-({4-[({3-[methyl(methylsulfonyl)amino]pyrazin-2-yl}methyl)amino]-5-(trifluoromethyl)pyrimidin-2-yl}amino)benzamide]	7.49
CN(c1cccc(CNc2nc(Nc3cc(C(N)=O)ccc3F)ncc2C(F)(F)F)c1)S(C)(=O)=O [Compound 374, 4-fluoro-3-{[4-({3-[methyl(methylsulfonyl)amino]benzyl}amino)-5-(trifluoromethyl)pyrimidin-2-yl]amino}benzamide]	15.5
CN(c1ncccc1CNc1nc(Nc2cc(C(N)=O)ccc2F)ncc1C(F)(F)F)S(C)(=O)=O [Compound 375, 4-fluoro-3-({4-[({2-[methyl(methylsulfonyl)amino]pyridin-3-yl}methyl)amino]-5-(trifluoromethyl)pyrimidin-2-yl)amino)benzamide]	6.29
CN(c1cccc(CNc2nc(Nc3ccc(C(N)=O)nc3)ncc2C(F)(F)F)c1)S(C)(=O)=O [Compound 376, 5-{[4-({3-[methyl(methylsulfonyl)amino]benzyl}amino)-5-(trifluoromethyl)pyrimidin-2-yl]amino}pyridine-2-carboxamide]	8.15
CN(c1cccnc1CNc1nc(Nc2ccc(C(N)=O)nc2)ncc1C(F)(F)F)S(C)(=O)=O [Compound 377, 5-({4-[({3-[methyl(methylsulfonyl)amino]pyridin-2-yl}methyl)amino]-5-(trifluoromethyl)pyrimidin-2-yl}amino)pyridine-2-carboxamide]	15.3
CN(c1cccnc1CNc1nc(Nc2cc(C(N)=O)ccc2F)ncc1C(F)(F)F)S(C)(=O)=O [Compound 378, 4-fluoro-3-({4-[({3-[methyl(methylsulfonyl)amino]pyridin-2-yl}methyl)amino]-5-(trifluoromethyl)pyrimidin-2-yl}amino)benzamide]	1.94
CN(c1cccc(CNc2nc(Nc3ccc(F)c(C(N)=O)c3)ncc2C(F)(F)F)c1)S(C)(=O)=O [Compound 379, 2-fluoro-5-{[4-({3-[methyl(methylsulfonyl)amino]benzyl}amino)-5-(trifluoromethyl)pyrimidin-2-yl]amino}benzamide]	4.78
CN(c1ncccc1CNc1nc(Nc2ccc(F)c(C(N)=O)c2)ncc1C(F)(F)F)S(C)(=O)=O [Compound 380, 2-fluoro-5-({4-[{{2-[methyl(methylsulfonyl)amino]pyridin-3-yl}methyl)amino]-5-(trifluoromethyl)pyrimidin-2-yl}amino)benzamide]	1.6
CN(c1cccnc1CNc1nc(Nc2ccc(F)c(C(N)=O)c2)ncc1C(F)(F)F)S(C)(=O)=O [Compound 381, 2-fluoro-5-({4-[({3-[methyl(methylsulfonyl)amino]pyridin-2-yl}methyl)amino]-5-(trifluoromethyl)pyrimidin-2-yl}amino)benzamide]	4.55
CN(c1nccnc1CNc1nc(Nc2ccc(F)c(C(N)=O)c2)ncc1C(F)(F)F)S(C)(=O)=O [Compound 382, 2-fluoro-5-({4-[({3-[methyl(methylsulfonyl)amino]pyrazin-2-yl}methyl)amino]-5-(trifluoromethyl)pyrimidin-2-yl}amino)benzamide]	10.7
CN(c1ncccc1CNc1nc(Nc2ccc(CNCCO)cc2)ncc1C(F)(F)F)S(C)(=O)=O [Compound 383, N-{3-[({2-[(4-{[(2-hydroxyethyl)amino]methyl}phenyl)amino]-5-(trifluoromethyl)pyrimidin-4-yl}amino)methyl]pyridin-2-yl}-N-methylmethane-sulfonamide]	< 0.595
CC(C)NCc1ccc(Nc2ncc(C(F)(F)F)c(NCc3cccnc3N(C)S(C)(=O)=O)n2)cc1 [Compound 384, N-[3-({[2-({4-[(isopropylamino)methyl]phenyl}amino)-5-(trifluoromethyl)pyrimidin-4-yl]amino}methyl)pyridin-2-yl]-N-methylmethane-sulfonamide]	< 0.595
CC(=O)Nc1cccc(Nc2ncc(C(F)(F)F)c(NCc3nccnc3N(C)S(C)(=O)=O)n2)c1 [Compound 385, N-[3-({4-[({3-[methyl(methylsulfonyl)amino]pyrazin-2-yl}methyl)amino]-5-(trifluoromethyl)pyrimidin-2-yl}amino)phenyl]acetamide]	1.44
CC(=O)Nc1cccc(Nc2ncc(C(F)(F)F)c(NCc3ncccc3N(C)S(C)(=O)=O)n2)c1 [Compound 386, N-[3-({4-[({3-[methyl(methylsulfonyl)amino]pyridin-2-yl}methyl)amino]-5-(trifluoromethyl)pyrimidin-2-yl}amino)phenyl]acetamide]	1.65
